Measured values from patent US8299236B2, “Compositions and methods for enhancing delivery of nucleic acids into cells and for modifying expression of target genes in cells” (Marina Biotech, Inc., priority 2004, dated 2012).

Assays:
9 L/LacZ cells = test: Screening of siRNA/peptide complexes for FAM-siRNA uptake (flow cytometry, propidium iodide); format: cell-based; conditions: Table 6
mouse tail fibroblasts = test: siRNA uptake with siRNA/peptide complexes in murine primary fibroblasts; format: cell-based; conditions: Table 6
Method: Approximately 10,000 9 L/lacZ cells were plated per well in flat-bottom 96-well plates so that they would be ˜50% confluent the next day at the time of transfection. FAM-labeled siRNA and peptides were diluted in Opti-MEM® media (Invitrogen) at 2-fold the final concentration. Equal volumes of siRNA and peptide were mixed and allowed to complex 5-10 minutes at room temperature and then 50 μL added to cells, previously washed with PBS. Cells were transfected for 3 hours at 37° C., 5% CO2. Cells were washed with PBS, treated with trypsin and then analyzed by flow cytometry. siRNA uptake was measured by intensity of FAM fluorescence and cellular viability assessed by addition of propidium iodide.
The materials and methods used for these experiments are generally the same as described above, except that for the murine experiments 9 L/LacZ cells were replaced with mouse tail fibroblasts.
The uptake measurements were performed using mouse tail fibroblast cells.

hTNF-α = test: Plasma hTNF-α ELISA in human TNF-α expressing mice; format: in vivo, mouse; conditions: i.v., average of the mice
Description: During the injection periods, plasma samples were collected for ELISA testing (R&D Systems, Cat#SSTA00C), and paw scores were taken twice a week as an accepted index of RA disease progression and therapeutic efficacy.

[1] = tested on: transgenic mouse models of rheumatoid arthritis (RA) constitutively expressing human TNF-α; test: Transgenic mouse models of rheumatoid arthritis constitutively expressing human TNF-α; format: in vivo; conditions: twice weekly beginning at age 6 weeks; stabilization beginning at age 7 weeks
Method: One exemplary candidate siRNA/delivery peptide formulation was evaluated in two transgenic mouse models of rheumatoid arthritis (RA) constitutively expressing human TNF-α.

cells = test: Uptake of peptide-siRNA conjugate versus complex (Cy5 fluorescence, flow cytometry); format: cell-based; conditions: FIGS. 1 and 2
Method: Cells were plated the day before in 24-well plates so that they were ˜50-80% confluent at time of transfection. For complexes, siRNA and peptide were diluted in Opti-MEM® media (Invitrogen), then mixed and allowed to complex 5-10 minutes before adding to cells washed with PBS. Final concentration of siRNA was 500 nM at each peptide concentration (2-50 μM). The conjugate, also diluted in Opti-MEM® media, was added to cells at final concentrations ranging from 62.5 nM to 500 nM. At 500 nM concentration, we also combined with 20% FBS just before adding to washed cells. Cells were transfected for 3 hours at 37° C., 5% CO2. Cells were washed with PBS, treated with trypsin and then analyzed by flow cytometry. siRNA uptake was measured by intensity of Cy5 fluorescence and cellular viability assessed by addition of propidium iodide.

Substance: AAVALLPAVLLALLAPRKKRRQRRRPPQC [PN27]
- Percent Uptake, LacZ Cells (9 L/LacZ cells): 86%
- Percent Uptake, Primary MTF Cells (mouse tail fibroblasts): 61%

Substance: Ac-KETWWETWWTEWSQPKKKRKV-NH2 [PN182]
- Percent Uptake, LacZ Cells (9 L/LacZ cells): 85%

Substance: H-AAVALLPAVLLALLAPSGASGLDKRDYV-NH2 [PN29]
- Percent Uptake, LacZ Cells (9 L/LacZ cells): 87%

Substance: H-GALFLGFLGAAGSTMGAWSQPKSKRKVC-NH2 [PN453]
- Percent Uptake, Primary MTF Cells (mouse tail fibroblasts): 79%

Substance: H-RGSRRAVTRAQRRDGRRRRRSRRESYSVYVYRVLRQ-NH2 [PN404]
- Percent Uptake, Primary MTF Cells (mouse tail fibroblasts): 50%

Substance: H-RRRQRRKRGGDIMGEWGNEIFGAIAGFLG-NH2 [PN250]
- Percent Uptake, LacZ Cells (9 L/LacZ cells): 99%
- Percent Uptake, Primary MTF Cells (mouse tail fibroblasts): 86%

Substance: NH2-LLETLLKPFQCRICMRNFSTRQARRNHRRRHRR-amide (H-LLETLLKPFQCRICMRNFSTRQARRNHRRRHRR-NH2; cysteine pairing not given here) [PN202]
- Percent Uptake, LacZ Cells (9 L/LacZ cells): 71%

Substance: NH2-RKKRRQRRRPPQCAAVALLPAVLLALLAP-amide (H-RKKRRQRRRPPQCAAVALLPAVLLALLAP-NH2) [PN28]
- Percent Uptake, LacZ Cells (9 L/LacZ cells): 79%
- Percent Uptake, Primary MTF Cells (mouse tail fibroblasts): 81%

Substance: Ramicade: the RA drug Ramicade (5 mg/kg); TNF-α neutralizing agent infliximab
- hTNF-α ELISA (plasma) (hTNF-α; age 7 weeks): 102.24 pg/mL
- hTNF-α ELISA (plasma) (hTNF-α; age 8 weeks): 39.27 pg/mL
- hTNF-α ELISA (plasma) (hTNF-α; age 9 weeks): 25.80 pg/mL
- RA score (paw and joint inflammation) [1]: RA score stabilization

Substance: conjugate: TAT-HA peptide (SEQ ID NO: 35) covalently conjugated to the siRNA sense strand (SEQ ID NO: 34) (chain 1 gcaagcugacccugaaguucau; chain 2 RRRQRRKRGGDIMGEWGNEIFGAIAGFLG; peptide-siRNA conjugate)
- siRNA uptake and mean fluorescence, conjugate compared to complexing peptide and RNA (cells): higher uptake and greater mean fluorescence uptake
